Experimental data taken from patent US12227522B2, “Synthesis of structural analogs of largazole and associated compounds” (COLORADO STATE UNIVERSITY RESEARCH FOUNDATION, priority 2020, dated 2025).

Legend:
Format in all cases: biochemical
[1] = target: HDAC 5 (Homo sapiens, UniProt Q9UQL6); assay: in vitro HDAC inhibition, HDAC isoform 5; details: Class 2a, read-out: HDAC inhibition as IC50, HDAC Isoform 5
[2] = target: T1, HDAC 11 (Homo sapiens, UniProt Q96DB2); assay: in vitro HDAC inhibition, HDAC isoform 11; details: Class 4, in vitro; read-out: HDAC inhibition as IC50, HDAC Isoform 11
T1 sequence (Q96DB2 1-347): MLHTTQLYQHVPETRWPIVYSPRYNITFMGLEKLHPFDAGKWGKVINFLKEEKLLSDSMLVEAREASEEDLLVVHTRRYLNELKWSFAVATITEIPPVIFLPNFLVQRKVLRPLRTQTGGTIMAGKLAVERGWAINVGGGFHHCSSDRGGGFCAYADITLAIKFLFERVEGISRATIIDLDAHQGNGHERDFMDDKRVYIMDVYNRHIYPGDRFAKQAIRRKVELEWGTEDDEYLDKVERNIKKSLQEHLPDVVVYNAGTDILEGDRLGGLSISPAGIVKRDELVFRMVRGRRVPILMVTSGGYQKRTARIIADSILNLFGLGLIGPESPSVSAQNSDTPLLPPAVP

[3] = target: HDAC 2 (Homo sapiens, UniProt Q92769); assay: in vitro HDAC inhibition, HDAC isoform 2; details: Class 1, in vitro; read-out: HDAC inhibition as IC50, HDAC Isoform 2
HDAC 2, sequence (Q92769 whole entry, canonical isoform): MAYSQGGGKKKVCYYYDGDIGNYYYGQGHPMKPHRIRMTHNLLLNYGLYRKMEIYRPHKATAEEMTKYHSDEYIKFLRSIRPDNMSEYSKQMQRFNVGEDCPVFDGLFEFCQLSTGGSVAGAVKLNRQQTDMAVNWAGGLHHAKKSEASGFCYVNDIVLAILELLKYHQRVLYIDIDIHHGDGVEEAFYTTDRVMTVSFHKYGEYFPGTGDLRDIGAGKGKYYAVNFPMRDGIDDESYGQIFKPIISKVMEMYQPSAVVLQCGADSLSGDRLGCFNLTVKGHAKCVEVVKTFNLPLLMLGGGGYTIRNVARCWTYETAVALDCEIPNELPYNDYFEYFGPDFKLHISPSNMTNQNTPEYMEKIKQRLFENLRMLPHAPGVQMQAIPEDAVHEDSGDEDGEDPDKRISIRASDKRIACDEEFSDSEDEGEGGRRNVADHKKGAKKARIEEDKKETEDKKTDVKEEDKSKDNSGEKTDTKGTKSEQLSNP

[4] = target: T2, HDAC 6 (Homo sapiens, UniProt Q9UBN7); assay: in vitro HDAC inhibition, HDAC isoform 6; details: Class 2b, read-out: HDAC inhibition as IC50, HDAC Isoform 6
T2 sequence (Q9UBN7 1-1215): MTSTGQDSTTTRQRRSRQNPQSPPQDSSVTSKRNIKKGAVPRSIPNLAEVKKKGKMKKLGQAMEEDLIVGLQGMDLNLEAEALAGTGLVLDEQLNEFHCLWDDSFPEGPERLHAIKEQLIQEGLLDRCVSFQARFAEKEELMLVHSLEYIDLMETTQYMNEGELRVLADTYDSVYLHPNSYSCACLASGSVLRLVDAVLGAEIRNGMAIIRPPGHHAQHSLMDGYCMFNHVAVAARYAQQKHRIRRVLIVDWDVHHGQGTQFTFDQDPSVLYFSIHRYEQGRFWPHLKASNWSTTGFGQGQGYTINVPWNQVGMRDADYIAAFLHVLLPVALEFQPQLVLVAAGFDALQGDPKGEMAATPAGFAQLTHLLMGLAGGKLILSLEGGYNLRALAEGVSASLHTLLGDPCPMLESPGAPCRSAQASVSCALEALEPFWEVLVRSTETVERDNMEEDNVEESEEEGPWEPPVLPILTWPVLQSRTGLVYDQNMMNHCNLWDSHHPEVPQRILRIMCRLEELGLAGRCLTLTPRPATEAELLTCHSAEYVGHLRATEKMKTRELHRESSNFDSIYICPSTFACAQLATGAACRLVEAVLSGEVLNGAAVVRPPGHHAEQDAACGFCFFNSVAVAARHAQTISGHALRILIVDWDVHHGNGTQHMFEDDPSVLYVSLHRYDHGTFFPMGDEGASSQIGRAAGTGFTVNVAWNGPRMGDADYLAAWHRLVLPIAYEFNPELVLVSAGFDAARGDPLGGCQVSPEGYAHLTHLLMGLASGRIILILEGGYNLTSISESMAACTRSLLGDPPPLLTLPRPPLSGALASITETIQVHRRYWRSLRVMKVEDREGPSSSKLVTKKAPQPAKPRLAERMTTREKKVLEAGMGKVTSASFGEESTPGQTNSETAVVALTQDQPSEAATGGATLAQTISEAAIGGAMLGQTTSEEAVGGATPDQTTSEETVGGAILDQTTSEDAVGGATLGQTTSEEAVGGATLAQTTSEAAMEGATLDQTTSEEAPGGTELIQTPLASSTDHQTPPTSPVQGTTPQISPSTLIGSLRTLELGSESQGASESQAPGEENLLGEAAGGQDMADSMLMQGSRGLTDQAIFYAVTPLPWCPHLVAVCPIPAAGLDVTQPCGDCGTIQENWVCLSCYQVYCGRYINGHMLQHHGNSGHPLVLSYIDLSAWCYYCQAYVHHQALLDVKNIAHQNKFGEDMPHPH

[5] = target: HDAC 9 (Homo sapiens, UniProt Q9UKV0); assay: in vitro HDAC inhibition, HDAC isoform 9; details: Class 2a, read-out: HDAC inhibition as IC50, HDAC Isoform 9
HDAC 9, sequence (Q9UKV0 whole entry, canonical isoform): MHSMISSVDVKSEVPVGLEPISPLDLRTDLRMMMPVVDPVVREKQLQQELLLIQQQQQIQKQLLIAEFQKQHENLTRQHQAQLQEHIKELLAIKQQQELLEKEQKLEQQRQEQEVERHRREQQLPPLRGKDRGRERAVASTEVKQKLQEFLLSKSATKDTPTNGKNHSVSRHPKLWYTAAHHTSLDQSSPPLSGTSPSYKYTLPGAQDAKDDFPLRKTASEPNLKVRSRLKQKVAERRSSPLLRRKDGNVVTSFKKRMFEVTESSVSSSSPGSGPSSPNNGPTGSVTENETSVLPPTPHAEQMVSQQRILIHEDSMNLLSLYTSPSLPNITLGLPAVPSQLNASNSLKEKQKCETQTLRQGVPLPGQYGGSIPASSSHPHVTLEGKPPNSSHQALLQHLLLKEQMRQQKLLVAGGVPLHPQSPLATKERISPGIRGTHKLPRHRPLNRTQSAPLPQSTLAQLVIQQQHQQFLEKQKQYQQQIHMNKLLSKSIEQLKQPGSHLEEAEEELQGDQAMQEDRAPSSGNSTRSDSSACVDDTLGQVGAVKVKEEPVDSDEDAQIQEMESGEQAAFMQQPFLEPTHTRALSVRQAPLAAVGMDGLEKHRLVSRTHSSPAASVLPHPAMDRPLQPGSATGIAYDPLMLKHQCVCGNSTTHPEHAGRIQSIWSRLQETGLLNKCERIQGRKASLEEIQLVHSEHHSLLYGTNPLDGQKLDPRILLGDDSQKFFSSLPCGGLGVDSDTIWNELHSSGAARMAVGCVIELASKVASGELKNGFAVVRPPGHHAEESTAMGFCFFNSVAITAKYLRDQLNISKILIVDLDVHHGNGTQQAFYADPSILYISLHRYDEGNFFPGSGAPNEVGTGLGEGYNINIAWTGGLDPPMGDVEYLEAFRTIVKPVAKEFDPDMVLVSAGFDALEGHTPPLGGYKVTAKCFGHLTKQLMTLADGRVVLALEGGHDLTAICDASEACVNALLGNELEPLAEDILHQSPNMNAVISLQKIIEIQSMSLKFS

[6] = target: T3, HDAC 8 (Homo sapiens, UniProt Q9BY41); assay: in vitro HDAC inhibition, HDAC isoform 8; details: Class 1, in vitro; read-out: HDAC inhibition as IC50, HDAC Isoform 8
T3 sequence (Q9BY41 1-377): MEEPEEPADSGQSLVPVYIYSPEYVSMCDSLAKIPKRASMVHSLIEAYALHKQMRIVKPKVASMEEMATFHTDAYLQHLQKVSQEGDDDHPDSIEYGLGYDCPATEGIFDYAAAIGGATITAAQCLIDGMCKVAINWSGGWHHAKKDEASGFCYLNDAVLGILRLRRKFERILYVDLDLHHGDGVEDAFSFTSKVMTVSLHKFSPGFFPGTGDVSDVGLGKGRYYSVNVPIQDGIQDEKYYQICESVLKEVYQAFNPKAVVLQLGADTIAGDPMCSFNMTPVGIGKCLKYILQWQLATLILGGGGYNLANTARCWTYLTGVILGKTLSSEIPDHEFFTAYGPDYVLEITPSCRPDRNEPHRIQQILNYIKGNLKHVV

[7] = target: HDAC 1 (Homo sapiens, UniProt Q13547); assay: in vitro HDAC inhibition, HDAC isoform 1; details: Class 1, in vitro; read-out: HDAC inhibition as IC50, HDAC Isoform 1
HDAC 1, sequence (Q13547 whole entry, canonical isoform): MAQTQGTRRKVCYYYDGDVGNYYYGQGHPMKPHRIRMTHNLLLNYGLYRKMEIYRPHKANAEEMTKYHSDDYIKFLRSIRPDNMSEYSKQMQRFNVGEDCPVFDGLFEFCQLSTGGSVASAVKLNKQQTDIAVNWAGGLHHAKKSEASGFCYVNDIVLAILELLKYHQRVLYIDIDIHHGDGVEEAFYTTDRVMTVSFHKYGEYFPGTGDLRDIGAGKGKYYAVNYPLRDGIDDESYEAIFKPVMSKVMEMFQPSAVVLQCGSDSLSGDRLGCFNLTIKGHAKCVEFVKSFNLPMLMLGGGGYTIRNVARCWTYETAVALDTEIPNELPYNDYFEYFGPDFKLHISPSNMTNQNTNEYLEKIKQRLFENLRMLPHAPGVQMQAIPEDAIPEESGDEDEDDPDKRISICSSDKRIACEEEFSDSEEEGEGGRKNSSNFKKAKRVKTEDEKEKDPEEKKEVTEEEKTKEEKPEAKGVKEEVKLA

[8] = target: T4, HDAC 7 (Homo sapiens, UniProt Q8WUI4); assay: in vitro HDAC inhibition, HDAC isoform 7; details: Class 2a, read-out: HDAC inhibition as IC50, HDAC Isoform 7
T4 sequence (Q8WUI4 1-952): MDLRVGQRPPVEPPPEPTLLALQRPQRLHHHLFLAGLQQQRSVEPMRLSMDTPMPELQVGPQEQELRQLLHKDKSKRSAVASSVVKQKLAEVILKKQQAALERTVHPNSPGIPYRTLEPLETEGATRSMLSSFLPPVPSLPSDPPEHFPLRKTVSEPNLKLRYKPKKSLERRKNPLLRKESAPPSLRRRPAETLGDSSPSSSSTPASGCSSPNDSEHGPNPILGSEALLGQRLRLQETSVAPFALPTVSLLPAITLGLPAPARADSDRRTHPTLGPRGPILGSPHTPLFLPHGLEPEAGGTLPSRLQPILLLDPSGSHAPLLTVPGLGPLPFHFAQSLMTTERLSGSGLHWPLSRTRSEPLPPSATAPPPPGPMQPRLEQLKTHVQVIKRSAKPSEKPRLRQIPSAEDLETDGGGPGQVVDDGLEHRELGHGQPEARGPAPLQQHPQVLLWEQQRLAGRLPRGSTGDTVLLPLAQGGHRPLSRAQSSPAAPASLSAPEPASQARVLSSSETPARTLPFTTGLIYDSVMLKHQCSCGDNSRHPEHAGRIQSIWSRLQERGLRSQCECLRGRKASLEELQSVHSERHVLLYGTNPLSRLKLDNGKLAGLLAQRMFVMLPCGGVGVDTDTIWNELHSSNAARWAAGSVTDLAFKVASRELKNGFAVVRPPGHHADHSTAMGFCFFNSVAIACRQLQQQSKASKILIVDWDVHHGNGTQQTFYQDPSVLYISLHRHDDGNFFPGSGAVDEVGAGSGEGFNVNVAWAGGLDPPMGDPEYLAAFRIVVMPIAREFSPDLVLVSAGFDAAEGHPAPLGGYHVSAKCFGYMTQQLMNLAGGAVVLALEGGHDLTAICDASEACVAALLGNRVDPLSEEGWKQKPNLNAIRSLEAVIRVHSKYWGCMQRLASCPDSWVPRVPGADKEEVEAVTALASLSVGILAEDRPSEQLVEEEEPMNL

[9] = target: HDAC 4 (Homo sapiens, UniProt P56524); assay: in vitro HDAC inhibition, HDAC isoform 4; details: Class 2a, read-out: HDAC inhibition as IC50, HDAC Isoform 4
HDAC 4, sequence (P56524 whole entry, canonical isoform): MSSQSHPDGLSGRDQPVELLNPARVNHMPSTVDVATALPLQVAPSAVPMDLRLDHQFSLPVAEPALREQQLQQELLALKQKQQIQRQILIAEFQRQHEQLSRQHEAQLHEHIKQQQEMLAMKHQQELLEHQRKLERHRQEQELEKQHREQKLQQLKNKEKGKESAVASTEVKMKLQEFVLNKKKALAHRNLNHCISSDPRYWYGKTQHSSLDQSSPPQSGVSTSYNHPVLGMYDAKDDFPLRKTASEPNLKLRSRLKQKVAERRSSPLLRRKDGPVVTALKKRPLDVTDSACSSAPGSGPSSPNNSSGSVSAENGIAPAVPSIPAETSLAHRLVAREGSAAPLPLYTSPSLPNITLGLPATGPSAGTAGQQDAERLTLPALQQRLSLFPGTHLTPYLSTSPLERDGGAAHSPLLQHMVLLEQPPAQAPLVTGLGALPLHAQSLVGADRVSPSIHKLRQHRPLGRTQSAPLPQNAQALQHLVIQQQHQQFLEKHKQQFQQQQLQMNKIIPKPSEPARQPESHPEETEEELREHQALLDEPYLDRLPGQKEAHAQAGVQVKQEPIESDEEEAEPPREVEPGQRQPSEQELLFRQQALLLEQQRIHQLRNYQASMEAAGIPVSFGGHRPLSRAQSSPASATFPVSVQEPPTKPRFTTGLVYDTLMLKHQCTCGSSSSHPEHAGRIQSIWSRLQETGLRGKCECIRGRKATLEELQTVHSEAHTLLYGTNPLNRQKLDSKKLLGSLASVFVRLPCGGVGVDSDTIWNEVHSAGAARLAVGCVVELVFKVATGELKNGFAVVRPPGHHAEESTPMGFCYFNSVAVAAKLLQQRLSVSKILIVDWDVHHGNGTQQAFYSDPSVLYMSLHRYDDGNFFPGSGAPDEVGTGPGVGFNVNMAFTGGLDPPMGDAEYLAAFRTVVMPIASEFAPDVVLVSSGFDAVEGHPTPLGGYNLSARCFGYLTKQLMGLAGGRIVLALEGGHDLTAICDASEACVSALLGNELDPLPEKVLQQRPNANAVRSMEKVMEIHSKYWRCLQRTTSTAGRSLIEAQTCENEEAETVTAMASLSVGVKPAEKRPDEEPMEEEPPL

[10] = target: HDAC 3 (Homo sapiens, UniProt O15379); assay: in vitro HDAC inhibition, HDAC isoform 3; details: Class 1, in vitro; read-out: HDAC inhibition as IC50, HDAC Isoform 3
HDAC 3, sequence (O15379 whole entry, canonical isoform): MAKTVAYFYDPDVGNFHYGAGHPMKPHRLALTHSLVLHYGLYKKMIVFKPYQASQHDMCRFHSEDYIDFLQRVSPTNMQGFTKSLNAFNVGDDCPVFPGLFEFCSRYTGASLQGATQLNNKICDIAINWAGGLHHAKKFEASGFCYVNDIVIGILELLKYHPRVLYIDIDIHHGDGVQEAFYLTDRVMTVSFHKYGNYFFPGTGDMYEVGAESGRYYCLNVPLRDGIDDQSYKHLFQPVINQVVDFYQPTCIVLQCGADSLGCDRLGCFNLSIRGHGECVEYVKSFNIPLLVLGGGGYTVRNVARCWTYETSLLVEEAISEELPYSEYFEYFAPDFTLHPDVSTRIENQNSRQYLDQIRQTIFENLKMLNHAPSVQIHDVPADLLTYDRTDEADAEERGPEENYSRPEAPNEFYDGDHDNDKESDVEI
HDAC 3, sequence (Q9Y618 395-489 partner limits assumed): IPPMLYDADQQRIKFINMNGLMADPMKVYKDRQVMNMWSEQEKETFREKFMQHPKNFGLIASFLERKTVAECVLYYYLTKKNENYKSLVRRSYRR

HDAC 5, sequence (Q9UQL6 whole entry, canonical isoform): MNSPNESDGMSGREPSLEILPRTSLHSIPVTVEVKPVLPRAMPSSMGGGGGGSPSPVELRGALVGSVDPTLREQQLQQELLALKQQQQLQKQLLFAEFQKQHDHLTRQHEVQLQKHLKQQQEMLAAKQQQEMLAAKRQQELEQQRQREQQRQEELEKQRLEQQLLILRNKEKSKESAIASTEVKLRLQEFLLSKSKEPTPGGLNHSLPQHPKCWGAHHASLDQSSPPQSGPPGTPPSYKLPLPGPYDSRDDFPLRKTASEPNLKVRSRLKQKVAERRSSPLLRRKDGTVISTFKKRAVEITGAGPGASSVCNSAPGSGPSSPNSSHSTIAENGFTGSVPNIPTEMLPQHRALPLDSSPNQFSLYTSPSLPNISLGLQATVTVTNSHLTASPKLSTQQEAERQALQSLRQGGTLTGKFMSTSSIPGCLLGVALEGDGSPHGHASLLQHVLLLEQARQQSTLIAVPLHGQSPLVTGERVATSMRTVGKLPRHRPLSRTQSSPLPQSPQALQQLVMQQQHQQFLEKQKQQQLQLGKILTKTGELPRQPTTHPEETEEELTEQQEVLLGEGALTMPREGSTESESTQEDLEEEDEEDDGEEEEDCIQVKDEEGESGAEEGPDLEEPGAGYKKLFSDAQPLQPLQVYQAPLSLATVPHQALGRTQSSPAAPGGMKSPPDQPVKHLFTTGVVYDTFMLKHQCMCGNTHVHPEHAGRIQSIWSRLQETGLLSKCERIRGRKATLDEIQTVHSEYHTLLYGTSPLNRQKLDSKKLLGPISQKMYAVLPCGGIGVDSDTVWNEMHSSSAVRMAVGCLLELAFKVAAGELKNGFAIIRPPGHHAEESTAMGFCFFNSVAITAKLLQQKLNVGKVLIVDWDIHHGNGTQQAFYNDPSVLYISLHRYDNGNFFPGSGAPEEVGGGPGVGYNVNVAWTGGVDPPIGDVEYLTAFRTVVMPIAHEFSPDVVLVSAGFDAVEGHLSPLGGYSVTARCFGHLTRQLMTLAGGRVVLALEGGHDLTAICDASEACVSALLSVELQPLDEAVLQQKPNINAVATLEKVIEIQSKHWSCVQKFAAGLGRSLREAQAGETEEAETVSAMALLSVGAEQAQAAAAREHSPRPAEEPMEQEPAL

IC50 [1]: > 10 mM
IC50 [2]: > 10 mM
IC50 [3]: > 10 mM
IC50 [4]: > 10 mM
IC50 [5]: > 10 mM
IC50 [6]: > 10 mM
IC50 [7]: > 10 mM
IC50 [8]: > 10 mM
IC50 [9]: > 10 mM
IC50 [10]: > 10 mM
SMILES: CC(C)[C@@H]1NC(=O)[C@]2(C)CSC(=N2)c2csc(n2)CNC(=O)C[C@@H](/C=C/CCO)NC1=O
